biological target: MMP-13 (Homo sapiens, UniProt P45452); assay: EnzoLyte 520 Generic MMP Assay Kit, 5-FAM/QXL520 FRET peptide substrate; assay type: biochemical
Excerpt: The EnzoLyte™ 520 Generic MMP Assay Kit (AnaSpec Inc.) can detect the activity of several MMPs including MMP-1, 2, 3, 7, 8, 9, 13, and 14. This kit uses a 5-FAM/QXL™520 fluorescence resonance energy transfer (FRET) peptide as an MMP substrate.

Row | SMILES | IC50 [nM]
1 | CNC(=O)[C@@H](NC(=O)c1ccc(-c2cccc(CNC(=O)c3ccc(C(C)C)cc3)c2)o1)C(C)C [5-{3-[(4-Isopropyl-benzoylamino)-methyl]-phenyl}-furan-2-carboxylic acid ((S)-2-methyl-1-methylcarbamoyl-propyl)-amide] | 225
2 | CNC(=O)[C@@H](NC(=O)c1ccc(-c2ccc(OCc3c[nH]cn3)cn2)o1)C1CCCCC1 [N-[(1S)-1-cyclohexyl-2-(methylamino)-2-oxoethyl]-5-{5-(1H-imidazol-5-ylmethoxy)pyridin-2-yl]furan-2-carboxamide] | 19
3 | COC[C@H](C)NC(=O)[C@@H](NC(=O)c1ccc(-c2ccc(C#N)cc2)o1)C1CCCCC1 [5-(4-cyanophenyl)-N-[(1S)-1-cyclohexyl-2-{[(2S)-1-methoxypropan-2-yl]amino}-2-oxoethyl]furan-2-carboxamide] | 195
4 | CNC(=O)[C@@H](NC(=O)c1ccc(-c2cccc(CNC(=O)c3cccc(Cl)n3)c2)o1)C(C)C [6-Chloro-N-[3-(5-{[(1S)-2-methyl-1-(methylcarbamoyl)propyl]carbamoyl}-2-furyl)benzyl]pyridine-2-carboxamide] | 2
5 | CNC(=O)[C@@H](NC(=O)c1ccc(-c2ccc(NS(C)(=O)=O)cc2)o1)C1CCCCC1 [N-[(1S)-1-cyclohexyl-2-(methylamino)-2-oxoethyl]-5-{4-[(methylsulfonyl)amino]phenyl}furan-2-carboxamide] | 455
6 | CNC(=O)[C@@H](NC(=O)c1ccc(-c2ccc(OCc3cc(C)n(C)n3)cn2)o1)C(C)C [5-[5-(1,5-Dimethyl-1H-pyrazol-3-ylmethoxy)-pyridin-2-yl]-furan-2-carboxylic acid ((S)-2-methyl-1-methylcarbamoyl-propyl)-amide] | 80
7 | CNC(=O)[C@@H](NC(=O)c1ccc(-c2ccc(NC(=O)c3cnn(C)c3)cc2)o1)C1CCCCC1 [N-[4-(5-{[(1S)-1-cyclohexyl-2-(methylamino)-2-oxoethyl]carbamoyl}furan-2-yl)phenyl]-1-methyl-1H-pyrazole-4-carboxamide] | 180
8 | CNC(=O)[C@@H](NC(=O)c1ccc(-c2cccc(CNC(=O)c3cccc(C)n3)c2)o1)C1CCCCC1 [N-[3-(5-{[(1S)-1-cyclohcxyl-2-(methylamino)-2-oxoethyl]carbamoyl}furan-2-yl)benzyl]-6-methylpyridine-2-carboxamide] | 4
9 | CNC(=O)[C@@H](NC(=O)c1ccc(-c2ccc(NC(=O)c3cn(C)cn3)cc2)o1)C1CCCCC1 [N-[4-(5-{[(1S)-1-cyclohexyl-2-(methylamino)-2-oxoethyl]carbamoyl}furan-2-yl)phenyl]-1-methyl-1H-imidazole-4-carboxamide] | 140
10 | CNC(=O)[C@@H](NC(=O)c1ccc(-c2ccc(OCc3ccccc3)cn2)o1)C(C)(C)O [5-(5-Benzyloxy-pyridin-2-yl)-furan-2-carboxylic acid ((S)-2-hydroxy-2-methyl-1-methylcarbamoyl-propyl)-amide] | 18
11 | CNC(=O)[C@@H](NC(=O)c1ccc(-c2ccc(NC(=O)c3cc4ccccc4o3)cc2)o1)C1CCCCC1 [N-[4-(5-{[(1S)-1-cyclohexyl-2-(methylamino)-2-oxoethyl]carbamoyl}furan-2-yl)phenyl]-1-benzofuran-2-carboxamide] | 496
12 | CNC(=O)[C@@H](NC(=O)c1ccc(-c2ccc(OCc3cc(C)nn3C)cn2)o1)C1CCCCC1 [5-[5-(2,5-Dimethyl-2H-pyrazol-3-ylmethoxy)-pyridin-2-yl]-furan-2-carboxylic acid ((S)-cyclohexyl-methylcarbamoyl-methyl)-amide] | 2
13 | CNC(=O)[C@@H](NC(=O)c1ccc(-c2cccc(CNC(=O)c3cc(Br)n(C)n3)c2)o1)C(C)C [5-Bromo-1-methyl-1H-pyrazole-3-carboxylic acid 3-[5-((S)-2-methyl-1-methylcarbamoyl-propylcarbamoyl)-furan-2-yl]-benzylamide] | 13
14 | CNC(=O)[C@@H](NC(=O)c1ccc(-c2ccc(-c3ccc(OC(C)C)cc3)cn2)o1)C(C)C [5-[5-(4-Isopropoxy-phenyl)-pyridin-2-yl]-furan-2-carboxylic acid ((S)-2-methyl-1-methylcarbamoyl-propyl)-amide] | 29
15 | CNC(=O)[C@@H](NC(=O)c1ccc(-c2ccc(-c3ccccc3)cn2)o1)C(C)C [5-(5-Phenyl-pyridin-2-yl)-furan-2-carboxylic acid ((S)-2-methyl-1-methylcarbamoyl-propyl)-amide] | 79
16 | CNC(=O)[C@@H](NC(=O)c1ccc(-c2cccc(CNC(=O)c3cccc(N(C)C)c3)c2)o1)C(C)C [5-{3-[(3-Dimethylamino-benzoylamino)-methyl]-phenyl}-furan-2-carboxylic acid ((S)-2-methyl-1-methylcarbamoyl-propyl)-amide] | 213
17 | CNC(=O)[C@@H](NC(=O)c1ccc(-c2ccc(OCc3[nH]cnc3C)cc2)o1)C1CCOCC1 [5-[4-(5-Methyl-3H-imidazol-4-ylmethoxy)-phenyl]-furan-2-carboxylic acid [(S)-methylcarbamoyl-(tetrahydro-pyran-4-yl)-methyl]-amide] | 27

Row | SMILES | IC50 [nM]
18 | CNC(=O)[C@@H](NC(=O)c1ccc(-c2ccc(C)cc2)o1)C1CCCCC1 [N-[(1S)-1-cyclohexyl-2-(methylamino)-2-oxoethyl]-5-(4-methylphenyl)furan-2-carboxamide] | 290
19 | CNC(=O)[C@@H](NC(=O)c1ccc(-c2ccc(-c3ccncc3)cn2)o1)C1CCCCC1 [5-[3,4′]Bipyridinyl-6-yl-furan-2-carboxylic acid ((S)-cyclohexyl-methylcarbamoyl-methyl)-amide] | 23
20 | CNC(=O)[C@@H](NC(=O)c1ccc(-c2ccc(-c3ccnc(C)c3)cn2)o1)C(C)C [5-(2′-Methyl-[3,4′]bipyridinyl-6-yl)-furan-2-carboxylic acid ((S)-2-methyl-1-methylcarbamoyl-propyl)-amide] | 110
21 | CNC(=O)[C@@H](NC(=O)c1ccc(-c2cccc(CNC(=O)c3cn4c(C)cccc4n3)c2)o1)C1CCCCC1 [N-[3-(5-{[(1S)-1-cyclohexyl-2-(methylamino)-2-oxoethyl]carbamoyl}furan-2-yl)benzyl]-5-methylimidazo[1,2-a]pyridine-2-carboxamide] | 110
22 | CNC(=O)[C@@H](NC(=O)c1ccc(-c2cccc(CNC(=O)c3ccnn3C)c2)o1)C1CCCCC1 [N-[3-(5-{[(1S)-1-cyclohexyl-2-(methylamino)-2-oxoethyl]carbamoyl}furan-2-yl)benzyl]-1-methyl-1H-pyrazole-5-carboxamide] | 143
23 | CNC(=O)[C@@H](NC(=O)c1ccc(-c2cccc(CNC(=O)c3cccc(C(C)C)c3)c2)o1)C(C)C [5-{3-[(3-Isopropyl-benzoylamino)-methyl]-phenyl}-furan-2-carboxylic acid ((S)-2-methyl-1-methylcarbamoyl-propyl)-amide] | 160
24 | CNC(=O)[C@@H](NC(=O)c1ccc(-c2ccc(-c3ccc(C)cc3)cn2)o1)C(C)C [5-[5-(4-Methyl-phenyl)-pyridin-2-yl]-furan-2-carboxylic acid ((S)-2-methyl-1-methylcarbamoyl-propyl)-amide] | 180
25 | CNC(=O)[C@@H](NC(=O)c1ccc(-c2ccc(NC(=O)c3cc(C)[nH]n3)cc2)o1)C1CCCCC1 [N-[4-(5-{[(1S)-1-cyclohexyl-2-(methylamino)-2-oxoethyl]carbamoyl}furan-2-yl)phenyl]-5-methyl-1H-pyrazole-3-carboxamide] | 87
26 | CNC(=O)[C@@H](NC(=O)c1ccc(-c2ccc(OCc3cc(C)n(C)n3)cn2)o1)C1CCCCC1 [N-[(1S)-1-cyclohexyl-2-(methylamino)-2-oxoethyl]-5-{5-[(1,5-dimethyl-1H-pyrazol-3-yl)methoxy]pyridin-2-yl}furan-2-carboxamide] | 4
27 | CNC(=O)[C@@H](NC(=O)c1ccc(-c2ccc(-c3cnc(N)nc3)cn2)o1)C(C)C [5-[5-(2-Amino-pyrimidin-5-yl)-pyridin-2-yl]-furan-2-carboxylic acid ((S)-2-methyl-1-methylcarbamoyl-propyl)-amide] | 380
28 | CNC(=O)[C@@H](NC(=O)c1ccc(-c2cccc(CNC(=O)C3CCCN(C)C3)c2)o1)C(C)C (stereo partly drawn) [1-Methyl-N-[3-(5-{[(1S)-2-methyl-1-(methylcarbamoyl)propyl]carbamoyl}-2-furyl)benzyl]piperidine-3-carboxamide] | 215
29 | CNC(=O)[C@@H](NC(=O)c1ccc(-c2cccc(CNC(=O)C3CCCCN3C)c2)o1)C(C)C (stereo partly drawn) [1-Methyl-N-[3-(5-{[(1S)-2-methyl-1-(methylcarbamoyl)propyl]carbamoyl}-2-furyl)benzyl]piperidine-2-carboxamide] | 300
30 | CNC(=O)[C@@H](NC(=O)c1ccc(-c2ccc(NC(=O)c3cccc(C)n3)cc2)o1)C1CCCCC1 [N-[4-(5-{[(1S)-1-cyclohexyl-2-(methylamino)-2-oxoethyl]carbamoyl}furan-2-yl)phenyl]-6-methylpyridine-2-carboxamide] | 17
31 | COCC(C)NC(=O)[C@@H](NC(=O)c1ccc(-c2ccc(NC(=O)c3cc4ccccc4o3)cc2)o1)C1CCCCC1 (stereo partly drawn) [N-{4-[5-({(1S)-1-cyclohexyl-2-[(1-methoxypropan-2-yl)amino]-2-oxoethyl}carbamoyl)furan-2-yl]phenyl}-1-benzofuran-2-carboxamide] | 355
32 | CNC(=O)[C@@H](NC(=O)c1ccc(-c2ccc(C#N)cc2)o1)C1CCOCC1 [5-(4-cyanophenyl)-N-[(1S)-2-(methylamino)-2-oxo-1-(tetrahydro-2H-pyran-4-yl)ethyl]furan-2-carboxamide] | 90
33 | CNC(=O)[C@@H](NC(=O)c1ccc(-c2cccc(CNC(=O)c3ncccc3C)c2)o1)C1CCCCC1 [N-[3-(5-{[(1S)-1-cyclohexyl-2-(methylamino)-2-oxoethyl]carbamoyl}furan-2-yl)benzyl]-3-methylpyridine-2-carboxamide] | 103
34 | CNC(=O)[C@@H](NC(=O)c1ccc(-c2ccc(OCc3cn(C)cn3)cn2)o1)C1CCNCC1 [N-[(1S)-2-(methylamino)-2-oxo-1-(piperidin-4-yl)ethyl]-5-{5-[(1-methyl-1H-imidazol-4-yl)methoxy]pyridin-2-yl}furan-2-carboxamide] | 163

Reference: patent publication US8637550B2, “Heteroaryl diamide compounds useful as MMP-13 inhibitors” (Boehringer Ingelheim International GmbH, priority 2008, dated 2014)
